Data: article PMC2864571 (2010)
Read-outs that look alike come from different tables or passages of the source.

Assays:
[1] = system: SK209-52 RNA (RNA, riboswitch, extra 5' G residues added for transcription (asterisks in Figure 1b)) GGUACCUGUCACAACGGCUUCCUGGCGUGACGAGGUGACCUCAGUGGAGCAA; experiment: in-line probing
[2] = system: SAM-Chlorobi RNA (longest construct) (RNA, mRNA element) GGAUUUUCCGGCAUCCCCAUUACCUAUGGACACGGUGCCAAAAGCUCUCUUGCGGGAGUUGUCCCCGGAGCUUGCCGAAAGGUUUCCCGUGUCCCGUUUGUCCCUCCGCGACAUUCACCUUCACGAGAAAACCGCAUCGGCAAACCGCCGGACACCUGCCGUUCUUGUCGUUCGAUUAACAAAAAACCGAAAGGGAAACUA; experiment: in-line probing; conditions: 1 mM tested; preliminary analysis
[3] = system: SAM-Chlorobi RNA (second construct, shorter 3' end) (RNA, mRNA element) GGAUUUUCCGGCAUCCCCAUUACCUAUGGACACGGUGCCAAAAGCUCUCUUGCGGGAGUUGUCCCCGGAGCUUGCCGAAAGGUUUCCCGUGUCCCGUUUGUCCC; experiment: in-line probing; conditions: 1 mM tested; preliminary analysis
[4] = system: SAM-Chlorobi RNA (third construct, shorter 3' end) (RNA, mRNA element) GGAUUUUCCGGCAUCCCCAUUACCUAUGGACACGGUGCCAAAAGCUCUCUUGCGGGAGUUGUCCCCGGAGCUUGCCGAAAGGUUUCC; experiment: in-line probing; conditions: 1 mM tested; preliminary analysis
[5] = system: SAM-Chlorobi RNA (fourth construct, shortest 3' end) (RNA, mRNA element) GGAUUUUCCGGCAUCCCCAUUACCUAUGGACACGGUGCCAAAAGCUCUCUUGCGGGAGUU; experiment: in-line probing; conditions: 1 mM tested; preliminary analysis
[6] = system: pfl RNA (RNA, riboswitch) GGUAAAAUAAGAAAAUCAUGCAACUGGCGGAAAUGGAGUUCACCAUAGGGAGCAUGAUUAAUAUAAGAAUCGACCGCCUGGGUAAAUUAAUA; experiment: RNase T1 and V1 protection assay; conditions: PRPP unstable; 1 mM in in-line probing list

Row | SMILES | KD ([1]; SAM samples contain some SAH from spontaneous demethylation, apparent) | binding [2] | binding [3] | binding [4] | binding [5] | KD [1] | binding [6]
1 | C[S+](CC[C@H](N)C(=O)O)C[C@H]1O[C@@H](n2cnc3c(N)ncnc32)[C@H](O)[C@@H]1O (some centres unmarked) | ~ 8.6 μM | no | no | no | no |  | 
2 | Nc1ncnc2c1ncn2[C@@H]1O[C@H](CSCC[C@H](N)C(=O)O)[C@@H](O)[C@H]1O |  | no | no | no | no | ~ 4.3 μM | 
3 | O=P(O)(O)OC[C@H]1O[C@H](OP(=O)(O)OP(=O)(O)O)[C@H](O)[C@@H]1O |  |  |  |  |  |  | no
